In data set [1] the test system is common mosquito (Culex pipiens pallens). Put plainly: Effect of a mosquito coil on common mosquito (knock-down). The class given is in vivo. The arrangement: key: Excellent: All the insects were knocked down (the total in the two replications).; Good: 1 to 3 insects were not knocked down (ditto).; Mediocre: 4 to 6 insects were not knocked down (ditto).; Bad: 7 or more insects were not knocked down (ditto). To be noted: 0.3 g coil burnt 30 seconds in 0.34 m^3 glass chamber, female adults counted after fifteen minutes. The source says:
Effect of a mosquito coil on common mosquito (Culex pipiens pallens)
A base material for mosquito coil (obtained by stirring a 4:3:3 mixture of Tabu powder, Pyrethrum marc and wood powder, adding water thereto, thoroughly kneading the resulting mixture, and molding and drying the kneaded mixture) was uniformly impregnated with a solution of the present compound in acetone so that the material contains a predetermined amount of the compound. The resultant base material was air-dried to obtain a mosquito coil.
Ten female adult common mosquitoes were released in a glass chamber (70 cm cube, capacity: 0.34 m^3). 0.3 Gram of a mosquito coil containing the present compound prepared according to the procedure described above was set on a holder in the center of bottom of the chamber, ignited at one end thereof, and taken out of the chamber after 30 seconds of combustion. The knocked-down common mosquitoes were counted in fifteen minutes after the setting of the coil.
(§1) The same test procedure was repeated for (S)-2-methyl-4-oxo-3-(2-propynyl)-cyclopent-2-enyl (1RS)-cis-3-(2,2-dichlorovinyl)-2,2-dimethylcyclopropanecarboxylate (hereinafter referred to as reference compound A).
In Table 1, the knocking-down activity is indicated according to the following criterion: […]

The test system is the same in data set [2]. The experiment in a line: Effect of spraying of an oil formulation on common mosquito (knock-down). It counts as in vivo. The following applies: 0.7 ml sprayed in 0.34 m^3 glass chamber, female adults counted after two minutes.
Source text: Effect of spraying of an oil formulation on common mosquito (Culex pipiens pallens)
Ten female adult common mosquitoes were released in a glass chamber (70 cm cube, capacity: 0.34 m^3). 0.7 Milliliter of an oil formulation containing a predetermined concentration (shown in Table 2) of the present compound prepared according to Formulation Example 7 was sprayed into the chamber through a small side window of the chamber with a spray gun. The knocked-down common mosquitoes were counted in two minutes after the spraying.
as §1
In Table 2, the knocking-down activity is indicated according to the following criterion: […]

For data set [3], the system named is American cockroach (Periplaneta americana). The experiment in a line: Insecticidal activity against American cockroach (topical application). To be noted: 72 h, read-out: Insecticidal activity against American cockroach (LD50). It counts as in vivo. The protocol: Insecticidal Activity Against American Cockroach (Periplaneta americana) and Toxicity to Rat Insecticidal Activity Against American Cockroach
Each of the present compound and reference compound A were diluted with acetone to prepare dilutions of prescribed concentrations. Each dilution was applied on the sterna of female adult American cockroaches with a micro-applicator in a volume of 1.0 μl per insect. Then, the insects were given water and diet. After 72 hours, the dead and alive were counted. From the mortality, LD50 (mg/kg) value was determined.

Another data set in a line: Toxicity to rat. To be noted: in vivo, male rats, dilution in corn oil, 10 ml/kg, mortality after 7 days. The protocol:
Each of the present compound and reference compound A was diluted with corn oil to predetermined concentrations. Each of the dilutions thus prepared was administered to male rats in an amount of 10 ml/kg. The rats were given water and diet. After 7 days, the dead and alive were counted for mortality. From the mortality, LD50 (mg/kg) value was determined.

Data set [4] can be described thus: Calculation of safety factor (rat LD50 / American cockroach LD50). The following applies: [Toxicity to rat (LD50 value)]/[Insecticidal activity against American cockroach (LD50 value)]. The procedure:
Calculation of Safety Factor
The safety factor was calculated from the insecticidal activity against American cockroach and the toxicity to rat according to the following equation.
Safety factor=[Toxicity to rat (LD50 value)]/[Insecticidal activity against American cockroach (LD50 value)]

Bounds are passed on as bounds.

One may read the LD50 as the dose expected to kill half of the subjects tested.

In the case of `C#CCC1=C(C)[C@@H](OC(=O)[C@@H]2[C@H](C=C(Cl)Cl)C2(C)C)CC1=O` (racemic) [A, (S)-2-methyl-4-oxo-3-(2-propynyl)-cyclopent-2-enyl (1RS)-cis-3-(2,2-dichlorovinyl)-2,2-dimethylcyclopropanecarboxylate], the Knocking-down activity entry in data set [1] (concentration 0.5 % W/W), in data set [1] (concentration 1.0 % W/W), in data set [2] (concentration 0.025 % W/W) and in data set [2] (concentration 0.05 % W/W) was “Bad (7 or more insects were not knocked down (ditto).)” each time. Also, the LD50 in data set [3] turned out to be 4.4 mg/kg. Moreover, the LD50 at 7 days in “Toxicity to rat” was under 100 mg/kg. Moreover, the Safety factor in data set [4] is under 23.
`C#CCC1=C(C)[C@@H](OC(=O)[C@@H]2[C@@H](C=C(Cl)Cl)C2(C)C)CC1=O` [Present compound, (S)-2-methyl-4-oxo-3-(2-propynyl)-cyclopent-2-enyl (1R)-trans-3-(2,2-dichlorovinyl)-2,2-dimethylcyclopropanecarboxylate]: the values for the Knocking-down activity entry in data set [1] (concentration 0.5 % W/W) and in data set [2] (concentration 0.025 % W/W) were “Excellent” and “Good (3 or less insects were not knocked down (the total in the two replications).)”, respectively. Also, the median lethal dose (LD50) in data set [3] is 0.72 mg/kg. In “Toxicity to rat”, the LD50 at 7 days is over 300 mg/kg. For the same molecule, in data set [4], the Safety factor is over 420.

(Values after patent US6423745B1, “Pyrethroid compound and composition for controlling pest containing the same as an active ingredient” (Sumitomo Chemical Co., Ltd., priority 1998, dated 2002).)
